Measured values reported in patent US9845292B2 (Max-Planck-Gesellschaft zur Förderung der Wissenschaften …, priority 2013, dated 2017).
Entries after “also recorded” stand apart in the source; their conditions may differ. Like-named read-outs stand apart in the source and are kept apart here. One block for each compound: values may come before it.

Assays:
[1] = molecular target: T1, FKBP51 (Homo sapiens, UniProt Q13451); experiment: Fluorescence polarization binding assay, FK1-domain of FKBP51WT with tracer F4; parameters: Purified FK1-domains of FKBP51WT (4.5 nM) with F4 (3 nM), FKBP52WT (400 nM) with F2 (20 nM); made in house; host or cells: E. coli BL21(DE3)pLysS
T1 sequence (Q13451 42-130 limits assumed): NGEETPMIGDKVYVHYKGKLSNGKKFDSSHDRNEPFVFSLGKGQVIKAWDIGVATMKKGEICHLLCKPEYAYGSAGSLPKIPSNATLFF
Method in brief: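 Competitive fluorescence polarization with tracer F4 and FKBP51 FK1 domain (wild type), compounds titrated by serial dilution from DMSO stock, run in duplicate. IC50 from four-parameter logistic fit; inhibition constants from an exact competitive-binding equation using tracer and inhibitor Kd values.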

[2] = tested on: N2a neuroblastoma cells; experiment: N2a cellular assay (neurite outgrowth); format: cell-based; details: for effect of high concentrations on neuronal differentiation: FIG. 1A, 1D; for enhancement of neurite outgrowth of N2a cells: compared to unselective FKBP ligand FK506, FIG. 1
Procedure: At day one N2a cells were plated into 24-well plates with cover slips (pretreated with polylysine) at a density of 35,000 cells/well and cultured with DMEM (incl. FCS 10% and Pen/Strep 1%) for 24 h. Next, cells were transfected with 80 ng expression plasmids encoding Venus as well as 720 ng pRK5 (mock transfection) in a total volume of 500 μl starvation media containing different concentrations of compounds or DMSO for 36 h (media without FCS; induction of neurite outgrowth). Therefore media was removed and replaced by 400 μl DMEM (empty). Next an equivalent volume of plasmids were given to 50 μl OPTIMEM and incubated for 5 min at RT. Additionally 1.5 μl Lipofectamine 2000 was separately dissolved in 50 μl OPTIMEM. After 5 min both solutions (plasmids and Lipofactamine 2000 containing media) were combined and incubated again for another 20 min. After that 100 μl of this mixture was given to 400 μl media per well. (See also protocol of the provider—Life Technologies).
On the next day cells were washed with PBS and incubated for 30 min with 300 μl PFA (4%) and sucrose (5%) to fix cells. After fixation cells were washed three times, mounted onto microscope slides using 4 μl Vectashield (mounting media) and analyzed by fluorescence microscopy. Each bar represents the mean of the neurite length of 30-50 cells after the indicated treatment (FIGS. 1-2).

[3] = molecular target: T2, FKBP52 (Homo sapiens, UniProt Q02790); experiment: Fluorescence polarization binding assay, FK1-domain of FKBP52WT with tracer F2 (selectivity FKBP51 vs. FKBP52); details: selectivity factor over FKBP52
T2 construct: Purified FK1-domains of FKBP51WT (4.5 nM) with F4 (3 nM), FKBP52WT (400 nM) with F2 (20 nM); implied by Ni-NTA purification) (N); made in house; host or cells: E. coli BL21(DE3)pLysS
T2 sequence (Q02790 50-138 limits assumed): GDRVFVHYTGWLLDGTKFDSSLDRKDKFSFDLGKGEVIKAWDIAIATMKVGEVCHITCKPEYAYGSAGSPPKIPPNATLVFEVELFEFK
Method in brief: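 Compounds titrated against FK1 domain of FKBP52 WT with fluorescent tracer F2, in duplicate; competition curves fitted to four-parameter logistic for IC50. Ki derived from exact competitive-binding equation using tracer Kd; selectivity expressed as Ki(FKBP51)/Ki(FKBP52).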

[4] = tested on: C57BL/6 mice; experiment: Combined Dex/CRH test (neuroendocrine analysis, plasma CORT); format: in vivo; details: 20 mg/kg i.p.; FIG. 2E
Procedure: Briefly, a reference blood sample was collected by an incision in the ventral tail vessel at 1500, three days prior to the actual test (‘untreated’ value). […] The injected volume was 0.3 ml for each injection. At 1500, a second blood sample was drawn from the tail vessel (‘after Dex’ value), immediately followed by an i.p. injection of CRH (0.15 mg/kg). Thirty minutes later, the mice were sacrificed and trunk blood was collected (‘after CRH’ value).

[5] = tested on: C57Bl/6N mice; experiment: Forced swim test (FST); format: in vivo; details: FIG. 2D
Procedure: For the forced swim test (FST), male C57Bl/6N mice at the age of 12 weeks were single housed and acclimated to the room for 2 weeks before the experiment. […] The next morning, mice were subjected to a FST to assess stress-coping behavior. Each mouse was put into a 2 l glass beaker for 6 min and analyzed using an automated video-tracking system (Anymaze 4.20, Stoelting, Ill., USA). Time spent immobile (floating) and time spent struggling was scored by an experienced observer, blind to treatment or condition of the animals.

[6] = molecular target: T1, FKBP51; experiment: Fluorescence polarization binding assay, FK1-domain of FKBP51WT with tracer F4; parameters: Purified FK1-domains of FKBP51WT (4.5 nM) with F4 (3 nM), FKBP52WT (400 nM) with F2 (20 nM); implied by Ni-NTA purification) (N); made in house; host or cells: E. coli BL21(DE3)pLysS; details: compounds B01-C25; read-out: Affinity(Ki) for FKBP51
Procedure: The target protein was also diluted in this assay buffer at double the highest concentration required for the final sample. This protein stock was used for a 1:1 serial dilution.
The inventive compound was dissolved in DMSO to reach a 100-times concentrated stock solution. This was used for a 1:1 serial dilution in DMSO.
For FKBP12, −51, and −52 the binding assays were performed in duplicates in the plate format.
The competition curves were analyzed by using SigmaPlot9. Data were fitted to a four parameter logistic curve to deduce the IC50 values. […]
Inhibition constants were measured in a fluorescence polarization binding assay by titrating the compounds.

Compound: COc1ccc(CC[C@@H](OC(=O)[C@@H]2CCCCN2C(=O)[C@H](c2cc(OC)c(OC)c(OC)c2)C2CCCCC2)c2cccc(OCC(=O)O)c2)cc1OC [Compound A17, 2-(3-((R)-1-(((S)-1-((S)-2-Cyclohexyl-2-(3,4,5-trimethoxyphenyl)acetyl)piperidine-2-carbonyl)oxy)-3-(3,4-dimethoxyphenyl)propyl)phenoxy)acetic acid]
Ki [1]: < 0.1 µM | rescue of reduced neurite length triggered by Ru26988 ([2]; 1 μM Ru26988, 10 nM A17, FIG. 2A, 2B): rescues reduced neurite length | protection of neurite outgrowth from the suppressing effect of high steroid concentrations ([2]; 1 μM aldosterone or 1 μM RU26988, FIG. 2A-2C): able to protect the neutrite outgrowth of N2a from the suppressing effect of high steroid concentrations | effect of high concentrations on neuronal differentiation [2]: do not lead to reduction of the neuronal differentiation | rescue of reduction of neurite outgrowth triggered by aldosterone ([2]; aldosterone 1 μM, FIG. 2B, 2C): reverts the reduction of neurite outgrowth | enhancement of neurite outgrowth of N2a cells [2]: stronger enhancement of neurite outgrowth; also recorded: promote neurite outgrowth in N2a cells more potently compared to FK506 | Ki(FKBP51)/Ki(FKBP52) ([3]; FKBP52WT (400 nM) with F2 (20 nM), A series): ++++ (>5000 ++++)

Compound: COc1ccc(CC[C@@H](OC(=O)[C@@H]2CCCCN2C(=O)[C@H](c2cc(OC)c(OC)c(OC)c2)C2CCCCC2)c2cccc(OCCN3CCOCC3)c2)cc1OC [Compound A18]
regulation of stress hormone secretion [4]: enhances the regulation of stress hormone secretion | effect of high concentrations on neuronal differentiation [2]: do not lead to reduction of the neuronal differentiation | enhancement of neurite outgrowth of N2a cells [2]: stronger enhancement of neurite outgrowth; also recorded: promote neurite outgrowth in N2a cells more potently compared to FK506 | floating time in forced swim test ([5]; 20.0 mg/kg): reduced floating time | struggling time in forced swim test ([5]; 20.0 mg/kg): enhanced struggling time | stress-coping behavior in the Forced Swim Test ([5]; single injection 20.0 mg/kg, 16 hours prior to testing): elicited a more active stress-coping behavior

Ki [6]: 1 to 10 µM | Ki(FKBP51)/Ki(FKBP52) ([3]; compounds B01-C25): +++ (>500 +++)
Compound: COc1cc([C@@H](C(=O)N2CCCC[C@H]2C(=O)OCCCO)C2CCCCC2)cc(OC)c1OC [Compound C22]

Ki [6]: 1 to 10 µM | Ki(FKBP51)/Ki(FKBP52) ([3]; compounds B01-C25): ++ (>50 ++)
Compound: COc1cc([C@@H](C(=O)N2CCCC[C@H]2C(=O)OC(C)CO)C2CCCCC2)cc(OC)c1OC (some centres unmarked) [Compound C25]
